Assay results from the NIST ThermoML archive (doi:10.1016/j.fluid.2014.12.023).
Where “and” joins values, the source holds several entries; their conditions need not be identical. Equal entries are not always repeated. Numbers after ± are expanded uncertainties.

Conditions: Liquid, Transpiration method

Fc1ccc(I)cc1 [1,4-fluoroiodobenzene]
Conditions | vapor or sublimation pressure
276.5 K | 0.0329 ± 0.0024 kPa
279.7 K | 0.04219 ± 0.003 kPa
283.9 K | 0.05918 ± 0.0042 kPa and 0.0586 ± 0.0042 kPa
286.5 K | 0.07144 ± 0.0051 kPa
289.4 K | 0.08532 ± 0.0061 kPa and 0.08615 ± 0.0062 kPa
293.3 K | 0.1163 ± 0.0083 kPa
298.1 K | 0.1638 ± 0.012 kPa
303 K | 0.2198 ± 0.016 kPa
308.1 K | 0.3015 ± 0.021 kPa
312.9 K | 0.4121 ± 0.029 kPa
317.9 K | 0.547 ± 0.038 kPa

Fc1cccc(Cl)c1 [1-chloro-3-fluorobenzene]
Conditions | vapor or sublimation pressure [kPa]
275.8 K | 0.4412 ± 0.031
280.1 K | 0.5829 ± 0.041
283.1 K | 0.7061 ± 0.05
286 K | 0.8315 ± 0.059
288.9 K | 1.031 ± 0.073
292 K | 1.237 ± 0.087
295.1 K | 1.491 ± 0.11
298.1 K | 1.767 ± 0.12
301 K | 2.096 ± 0.15
304.1 K | 2.469 ± 0.17
307.3 K | 2.963 ± 0.21
310.3 K | 3.568 ± 0.25
313.3 K | 4.106 ± 0.29
316.5 K | 4.927 ± 0.35
319.5 K | 5.737 ± 0.4

Fc1cccc(Br)c1 [1-bromo-3-fluorobenzene]
Conditions | vapor or sublimation pressure [kPa]
280.8 K | 0.2278 ± 0.017
283.4 K | 0.2912 ± 0.02
283.7 K | 0.2875 ± 0.02
284.7 K | 0.3109 ± 0.022
286.6 K | 0.3559 ± 0.025
287.7 K | 0.3711 ± 0.026
288.7 K | 0.403 ± 0.029
289.4 K | 0.4245 ± 0.03
292.5 K | 0.5168 ± 0.036
293.4 K | 0.5476 ± 0.039
295.3 K | 0.6202 ± 0.044
298.4 K | 0.7441 ± 0.052
299.7 K | 0.8106 ± 0.057
301.5 K | 0.8784 ± 0.062
302.4 K | 0.9483 ± 0.067
305.8 K | 1.125 ± 0.079
308.5 K | 1.312 ± 0.092
311.6 K | 1.541 ± 0.11
314.6 K | 1.819 ± 0.13
317.6 K | 2.138 ± 0.15

Fc1ccc(Br)cc1 [1-bromo-4-fluorobenzene]
Conditions | vapor or sublimation pressure [kPa]
278.2 K | 0.1662 ± 0.012
281.3 K | 0.2043 ± 0.015
283.5 K | 0.2384 ± 0.017
284.4 K | 0.2446 ± 0.017
286.5 K | 0.285 ± 0.02
287.3 K | 0.2956 ± 0.021
289.4 K | 0.3532 ± 0.025
290.2 K | 0.3668 ± 0.026
292.4 K | 0.4087 ± 0.029
295.4 K | 0.5144 ± 0.036
296.1 K | 0.5283 ± 0.037
298.3 K | 0.6028 ± 0.043
300.1 K | 0.6822 ± 0.048
301.4 K | 0.7138 ± 0.05
304.4 K | 0.8461 ± 0.06
307.6 K | 0.9874 ± 0.07
310.5 K | 1.204 ± 0.085
313.4 K | 1.41 ± 0.1
316.4 K | 1.673 ± 0.12

Fc1ccccc1I [1,2-fluoroiodobenzene]
Conditions | vapor or sublimation pressure
282.8 K | 0.0397 ± 0.0028 kPa
285.7 K | 0.0483 ± 0.0035 kPa and 0.0493 ± 0.0035 kPa
288.7 K | 0.0638 ± 0.0046 kPa
289.5 K | 0.0686 ± 0.0049 kPa
292.5 K | 0.0843 ± 0.006 kPa
296.4 K | 0.1111 ± 0.0079 kPa
298.4 K | 0.1269 ± 0.0091 kPa
301.4 K | 0.1633 ± 0.012 kPa
303.4 K | 0.1819 ± 0.013 kPa
306.4 K | 0.2238 ± 0.016 kPa
308.4 K | 0.25 ± 0.018 kPa
311.3 K | 0.2939 ± 0.021 kPa
313.4 K | 0.3289 ± 0.024 kPa
316.4 K | 0.4201 ± 0.03 kPa
317.5 K | 0.4348 ± 0.031 kPa
318.4 K | 0.4686 ± 0.033 kPa
321.4 K | 0.5638 ± 0.04 kPa
323.5 K | 0.6216 ± 0.044 kPa
326.5 K | 0.7364 ± 0.052 kPa
327.5 K | 0.7616 ± 0.054 kPa
328.6 K | 0.8217 ± 0.058 kPa

Fc1ccccc1Br [1-bromo-2-fluorobenzene]
Conditions | vapor or sublimation pressure [kPa]
278.5 K | 0.1247 ± 0.0092
279.4 K | 0.1385 ± 0.0098
280.6 K | 0.1422 ± 0.01
282.3 K | 0.1684 ± 0.012
282.5 K | 0.1604 ± 0.011
283.4 K | 0.1716 ± 0.012
284.5 K | 0.1843 ± 0.013
285.5 K | 0.2081 ± 0.015
288.7 K | 0.262 ± 0.018
291.7 K | 0.3115 ± 0.022
294.5 K | 0.3837 ± 0.027
297.5 K | 0.4636 ± 0.033
300.3 K | 0.5578 ± 0.039
303.5 K | 0.6675 ± 0.047
306.6 K | 0.8 ± 0.057
309.5 K | 0.944 ± 0.067
312.6 K | 1.141 ± 0.081
315.4 K | 1.338 ± 0.095
318.6 K | 1.61 ± 0.11
321.4 K | 1.858 ± 0.13
324.3 K | 2.174 ± 0.15

Fc1ccccc1Cl [1-chloro-2-fluorobenzene]
Conditions | vapor or sublimation pressure
277.5 K | 0.3411 ± 0.024 kPa
280.6 K | 0.4191 ± 0.03 kPa and 0.4312 ± 0.031 kPa
283.5 K | 0.5098 ± 0.036 kPa
283.6 K | 0.5041 ± 0.036 kPa
286.4 K | 0.6241 ± 0.044 kPa
286.6 K | 0.6176 ± 0.044 kPa
289.5 K | 0.7705 ± 0.054 kPa
289.6 K | 0.7749 ± 0.055 kPa
292.4 K | 0.8974 ± 0.063 kPa
295.7 K | 1.093 ± 0.077 kPa
298.5 K | 1.268 ± 0.09 kPa
301.3 K | 1.521 ± 0.11 kPa
304.1 K | 1.795 ± 0.13 kPa
307.4 K | 2.169 ± 0.15 kPa
310.1 K | 2.497 ± 0.18 kPa
313.6 K | 3.121 ± 0.22 kPa
316.3 K | 3.551 ± 0.25 kPa
319.2 K | 4.226 ± 0.3 kPa

Fc1ccc(Cl)cc1 [1-chloro-4-fluorobenzene]
Conditions | vapor or sublimation pressure [kPa]
277.6 K | 0.6008 ± 0.043
280.6 K | 0.7421 ± 0.053
283.2 K | 0.8729 ± 0.062
286.2 K | 1.057 ± 0.075
289.3 K | 1.259 ± 0.089
292.4 K | 1.527 ± 0.11
295.7 K | 1.87 ± 0.13
296.9 K | 1.982 ± 0.14
299.8 K | 2.405 ± 0.17
302.7 K | 2.858 ± 0.2
305.7 K | 3.285 ± 0.23
308.4 K | 3.855 ± 0.27
311.6 K | 4.575 ± 0.32
314.3 K | 5.275 ± 0.37
317.6 K | 6.059 ± 0.43
320.4 K | 7.146 ± 0.5
323.5 K | 8.51 ± 0.6

Fc1cccc(I)c1 [1,3-fluoroiodobenzene]
Conditions | vapor or sublimation pressure
275.2 K | 0.0326 ± 0.0023 kPa
280.4 K | 0.0474 ± 0.0034 kPa
283.4 K | 0.0571 ± 0.004 kPa
283.8 K | 0.058 ± 0.0041 kPa
284.9 K | 0.0625 ± 0.0045 kPa
286.8 K | 0.0746 ± 0.0053 kPa
288.2 K | 0.082 ± 0.0058 kPa
288.7 K | 0.0861 ± 0.0061 kPa and 0.0802 ± 0.0058 kPa
290.7 K | 0.0986 ± 0.007 kPa
292.6 K | 0.1122 ± 0.0079 kPa
293.2 K | 0.1154 ± 0.008 kPa
293.6 K | 0.1137 ± 0.008 kPa
296.7 K | 0.1436 ± 0.01 kPa
297.6 K | 0.1513 ± 0.011 kPa and 0.1481 ± 0.011 kPa
300.6 K | 0.184 ± 0.013 kPa
302.5 K | 0.2085 ± 0.015 kPa
305.6 K | 0.256 ± 0.018 kPa
307.5 K | 0.2849 ± 0.02 kPa
307.6 K | 0.2932 ± 0.021 kPa and 0.3026 ± 0.021 kPa
310.6 K | 0.364 ± 0.026 kPa and 0.3464 ± 0.025 kPa
312.5 K | 0.4094 ± 0.029 kPa and 0.3873 ± 0.027 kPa
315.6 K | 0.4642 ± 0.033 kPa
315.7 K | 0.4836 ± 0.034 kPa
317.6 K | 0.516 ± 0.036 kPa
317.7 K | 0.5427 ± 0.038 kPa
319.6 K | 0.5968 ± 0.042 kPa
